Patent US20250002450A1, “CATIONIC STEROID COMPOUNDS, METHOD OF OBTAINING THEREOF, FORMULATIONS COMPRISING THEREOF AND THEIR USES” (UNIVERSIDADE DO PORTO, priority 2021, published 2025)

What was measured:
[1] = tested on: marine biofilm-forming bacterial strains; settings: cited from earlier work
E. coli SA/2 = assay: Checkerboard synergy with CTX; type: cell-based
Protocol: (§1) The combined effect of compound 1 and CTX for E. coli SA/2, VAN for E. faecalis B3/101, COL for E. coli 2252, erythromycin for E. coli ATCC 25922, and OXA for S. aureus 66/1 was evaluated by the checkerboard method. […] The interaction between compound 1 and erythromycin was assessed for E. coli ATCC 25922. Gram-negative bacteria are intrinsically resistant to erythromycin, a macrolide that inhibits protein synthesis, and cannot penetrate the outer membrane of Gram-negative bacteria, which is impermeable to hydrophobic antibiotics. Ascertain ceragenins have been previously described to be able to enhance the efficacy of such antibiotics, this possibility was investigated for compound 1 and a FICI of 0.6 was obtained.

E. faecalis B3/101 = assay: Checkerboard synergy with VAN; type: cell-based, Enterococcus faecalis
Protocol: as §1

E. coli ATCC 25922 [2] = assay: Time-kill kinetics; type: cell-based, Escherichia coli
Protocol: The present disclosure relates to antibacterial mechanism of action of the compound 1 herein disclosed. In an embodiment, the evaluation of time-kill kinetics was performed as follows. Time-kill kinetics of compound 1 were evaluated for E. coli ATCC 25922, allowing the confirmation of its bactericidal effect. This is usually determined when ≥99.9% killing of the initial inoculum occurs and is determined by a 3-log10-unit decrease in CFU/mL.
The effect of compound 1 concentrations ranging between 64 and 8 μg/mL was evaluated. The bacterial inoculum was prepared by suspending colonies from overnight cultures (grown in MHA) in CAMHB, and an aliquot of this suspension was added to each tube of CAMHB alone (control) or CAMHB plus an appropriate amount of compound 1, to give an inoculum of approximately 5×10^5 CFU/mL, in a final volume of 10 mL. Tubes were incubated at 37 degrees C. in a water bath with shaking. At predetermined time points (30 min, 1, 1.5, 2, 3, 4, 6, 8, 12, and 24 h), 100 μL aliquots were aseptically removed from each tube, after vortexing, serially diluted in buffered peptone water (Biokar Diagnostics, Allone, Beauvais, France), if necessary, and spread on MHA. Colony counts were determined following overnight incubation at 37 degrees C. and log10 CFU/mL was plotted against time. Three independent experiments were performed.

S. aureus 66/1 = assay: Checkerboard synergy with OXA; type: cell-based, Staphylococcus aureus
Protocol: as §1

S. aureus 66/1 (MRSA) = assay: Kirby-Bauer disk diffusion; type: cell-based, Staphylococcus aureus; settings: 15 μg per disk
Protocol: (§2) An initial screening of the antibacterial activity of the compounds was performed by the Kirby-Bauer disk diffusion method, as recommended by the Clinical and Laboratory Standards Institute (CLSI). Briefly, sterile 6 mm blank paper disks (Oxoid, Basingstoke, England) impregnated with 15 μg of each compound were placed on inoculated MH agar plates. A blank disk with dimethylsulfoxide (DMSO) was used as a negative control. MH inoculated plates were incubated for 18-20 h at 37 degrees C. At the end of incubation, the inhibition halos where measured. The MIC was used to determine the antibacterial activity of each compound, in accordance with the recommendations of the CLSI. Two-fold serial dilutions of the compounds were prepared in Mueller-Hinton Broth 2 (MHB2—Sigma-Aldrich, St. Louis, MO, USA) within the concentration range of 0.062-64 μg/mL. CTX ranging between 0.031-16 μg/mL was used as a control. Sterility and growth controls were included in each assay. Purity checks and colony counts of the inoculum suspensions were also performed in order to ensure that the final inoculum density closely approximates the intended number (5×10^5 CFU/mL). The MIC was determined as the lowest concentration of compound that inhibited growth of the bacteria. The MBC was assessed by spreading 10 μL of culture collected from wells showing no visible growth on MH agar plates. […]

E. coli ATCC 25922 [3] = assay: Bacterial biofilm formation inhibition (crystal violet); type: cell-based, Escherichia coli
Protocol: In an embodiment, the antibiofilm activity of compound 1 was performed as follows. Given its bactericidal effect, the impact of compound 1 on the biofilm formation of reference strains was studied.
The effect of compound 1 on bacterial biofilm formation was evaluated through quantification of total biomass, using the crystal violet method, as previously described ([FIG. 6]). […] A control with an appropriate concentration of DMSO, as well as a negative control (TSB alone) was included. Sterile 96-well flat-bottomed untreated polystyrene microtiter plates were used. After a 24 h incubation at 37 degrees C., the biofilms were heat-fixed for 1 h at 60 degrees C. and stained with 0.5% (v/v) crystal violet (Quimica Clinica Aplicada, Amposta, Spain) for 5 min. The stain was resolubilized with 33% (v/v) acetic acid (Acetic acid 100%, AppliChem, Darmstadt, Germany) and the biofilm biomass was quantified by measuring the absorbance of each sample at 570 nm in a microplate reader (Thermo Scientific Multiskan® EX, Thermo Fisher Scientific, Waltham, MA, USA). The background absorbance (TSB or TSB+1% glucose without inoculum) was subtracted from the absorbance of each sample and the data are presented as a percentage of control. Three independent assays were performed for reference strains, with triplicates for each experimental condition.

C. albicans ATCC 10231 = assay: Propidium iodide influx assay (SYTO 9/PI); type: cell-based, Candida albicans; settings: 5 min
Protocol: Influx of PI in C. albicans ATCC 10231 treated with compound 1 was evaluated using a commercial kit, which includes fluorescent nucleic acid stains SYTO™ 9 and PI, and measurements were conducted in a fluorescence microplate reader. […] The ability of PI to penetrate cells with damaged membranes makes it suitable for studying the effect of drugs on cell membranes.
In order to assess membrane integrity by the PI influx assay, a commercial kit was used (LIVE/DEAD® BacLight™ Bacterial Viability Kit, for microscopy & quantitative assays, Invitrogen by Thermo Fisher Scientific, Waltham, MA, USA), which includes fluorescent nucleic acid stains SYTO® 9 and PI. Briefly, C. albicans ATCC 10231 colonies from overnight cultures in SDA were suspended in sterile saline and adjusted to 0.5 McFarland. This suspension was then diluted in RPMI (1:50 followed by 1:20) to achieve a final concentration of 0.5-2.5×10^3 CFU/mL and the tubes were incubated overnight at 36° C. in a water bath with shaking. The following day, the cell suspensions were centrifuged at 3500 rpm for 15 min, the supernatant was removed, and the cells were carefully resuspended in 2 mL of 0.85% NaCl (VWR International, Radnor, PA, USA) prepared in ultrapure water. An aliquot of this suspension was then added to each tube of 0.85% NaCl alone (control) or 0.85% NaCl plus an appropriate amount of test compound, in a 1:10 proportion. […] Fluorescence intensity of the stained yeast suspensions was obtained in a microplate reader (Synergy HT, BioTek Instruments) by two consecutive measurements: with excitation wavelength 485 nm and emission wavelength 528 nm (SYTO® 9) and with excitation wavelength 485 nm and emission wavelength 590 nm (PI). Data were analyzed by subtracting background fluorescence from each sample, dividing fluorescence intensity of SYTO® 9 by fluorescence intensity of PI, and are presented as a percentage of control. […]

[4] = tested on: Enterococcuss faecalis ATCC 29212; assay: Kirby-Bauer disk diffusion; type: cell-based, Enterococcus faecalis; settings: 15 μg per disk
Protocol: as §2

E. faecalis B3/101 (VRE) = assay: Kirby-Bauer disk diffusion; type: cell-based, Enterococcus faecalis; settings: 15 μg per disk
Protocol: as §2

C[C@H](CCC(=O)NCCN)[C@H]1CC[C@H]2[C@@H]3CC[C@@H]4C[C@H](O)CC[C@]4(C)[C@H]3C[C@H](O)[C@]12C [Compound 1, (R)—N-(2-aminoethyl)-4-((3R,5R,8R,9S,10S,12S,13R,14S,17R)-3,12-dihydroxy-10,13-dimethylhexadecahydro-1H-cyclopenta[a]phenanthren-17-yl) pentanamida]
activity against growth of marine biofilm-forming bacterial strains (in words) [1]: active
combined effect with CTX (in words) (E. coli SA/2): No synergistic interactions
combined effect with VAN (in words) (E. faecalis B3/101): No synergistic interactions
exposure time to bactericidal activity (≥99.9% killing) (E. coli ATCC 25922 [2]; 64 μg/mL (2×MIC)): approximately 1 h
decrease in CFU/mL (E. coli ATCC 25922 [2]; 64 μg/mL, after 30 min of exposure): 2 log10-unit
type of killing (in words) (E. coli ATCC 25922 [2]; 64-8 μg/mL): concentration-dependent killing
combined effect with OXA (in words) (S. aureus 66/1): No synergistic interactions
Disk diffusion (S. aureus 66/1 (MRSA)): 11 mm
biofilm formation (in words) (E. coli ATCC 25922 [3]; 2×MIC and MIC, 24 h): significantly inhibited
minimal biofilm inhibitory concentration (MBIC) (E. coli ATCC 25922 [3]; 80% reduction of biofilm formation, E. coli ATCC 25922): < 8 µg/mL
influx of PI (C. albicans ATCC 10231; 32 μg/mL (½×MIC)): no evidence of influx of PI
reduction of SYTO 9/PI ratio vs untreated control (C. albicans ATCC 10231; 128 and 64 μg/mL (2×MIC and MIC)): significant
Disk diffusion [4]: 13 mm
Disk diffusion (E. faecalis B3/101 (VRE)): 11 mm
